The assay relates to Swiss mice, Sarcoma 180 sc, mean tumor weight T/C. As to the kind of experiment: NCI In Vivo Anticancer Drug Screen. Data for tumor model Sarcoma 180 (subcutaneous) in Swiss mice. To be noted: endpoint: mean tumor weight, higher = larger tumour. An outline of the steps: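 Transplantable tumors were established in mice, compound was given, then survival or tumor size was recorded. The treated value was divided by the vehicle-control value.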

[1] abbreviates: dose: 50.0 mg/kg/injection, schedule: Q01DX007 (ip), vehicle: carboxymethylcellulose (CMC).
[2] abbreviates: dose: 125.0 mg/kg/injection, schedule: Q01DX007 (ip), vehicle: saline.

“And” between values parts separate entries of the source, which are not always exact repeats. Identical values can stand only once.

One may read the T/C as the ratio of treated to control. On to `O=C(O)c1ccc(-c2ccccc2)cc1`, for which the T/C runs as follows: under setting [1], 95 % of control; (dose: 100.0 mg/kg/injection, schedule: Q01DX007 (ip), vehicle: carboxymethylcellulose (CMC)) 118 % of control; (dose: 200.0 mg/kg/injection, schedule: Q01DX007 (ip), vehicle: carboxymethylcellulose (CMC)) 120 % of control.
As to `Cc1ccc2[nH]c(C)c(CCN)c2c1`, the T/C is, setting by setting: (dose: 44.0 mg/kg/injection, schedule: Q01DX007 (ip), vehicle: water) 95 % of control; (dose: 66.0 mg/kg/injection, schedule: Q01DX007 (ip), vehicle: water) 119 % of control; (dose: 100.0 mg/kg/injection, schedule: Q01DX007 (ip), vehicle: water) 97 % of control.
`CC(=O)OCC1OC(n2ncc(=O)[nH]c2=O)C(OC(C)=O)C1OC(C)=O` (stereo not drawn): the T/C was 74 % of control (dose: 375.0 mg/kg/injection, schedule: Q01DX007 (ip), vehicle: other); 93 % of control (dose: 750.0 mg/kg/injection, schedule: Q01DX007 (ip), vehicle: other); 74 % of control (dose: 1500.0 mg/kg/injection, schedule: Q01DX007 (ip), vehicle: other).
Turning to `C=CC1CN2CCC1CC2C(O)c1ccnc2ccc(OC)cc12` (stereo not drawn), the T/C runs as follows: (dose: 30.16 mg/kg/injection, schedule: Q01DX007 (ip), vehicle: other) 96 % of control; (dose: 31.25 mg/kg/injection, schedule: Q#A X014 (ip), vehicle: carboxymethylcellulose (CMC)) 101 % of control; (dose: 47.12 mg/kg/injection, schedule: Q01DX007 (ip), vehicle: carboxymethylcellulose (CMC)) 92 % of control; (dose: 56.25 mg/kg/injection, schedule: Q01DX007 (ip), vehicle: carboxymethylcellulose (CMC)) 89 % of control; (dose: 60.32 mg/kg/injection, schedule: Q01DX007 (ip), vehicle: other) 75 % of control; (dose: 62.5 mg/kg/injection, schedule: Q#A X014 (ip), vehicle: carboxymethylcellulose (CMC)) 120 % of control. For the same compound, the T/C reads like this: (dose: 94.25 mg/kg/injection, schedule: Q01DX007 (ip), vehicle: carboxymethylcellulose (CMC)) 93 % of control; (dose: 112.5 mg/kg/injection, schedule: Q01DX007 (ip), vehicle: carboxymethylcellulose (CMC)) 80 % of control; (dose: 120.65 mg/kg/injection, schedule: Q01DX007 (ip), vehicle: other) 99 % of control; (dose: 125.0 mg/kg/injection, schedule: Q#A X014 (ip), vehicle: carboxymethylcellulose (CMC)) 121 % of control; (dose: 188.5 mg/kg/injection, schedule: Q01DX007 (ip), vehicle: carboxymethylcellulose (CMC)) 78 % of control; (dose: 225.0 mg/kg/injection, schedule: Q01DX007 (ip), vehicle: carboxymethylcellulose (CMC)) 118 % of control. Also, the T/C is, setting by setting: (dose: 241.3 mg/kg/injection, schedule: Q01DX007 (ip), vehicle: other) 97 % of control; (dose: 250.0 mg/kg/injection, schedule: Q#A X014 (ip), vehicle: carboxymethylcellulose (CMC)) 50 % of control.
Take `CCSc1nc(Cl)cc(Sc2nc(N)nc3nc[nH]c23)n1`: the T/C (dose: 9.0 mg/kg/injection, schedule: Q01DX007 (ip), vehicle: other) was 75 % of control; the T/C (dose: 18.0 mg/kg/injection, schedule: Q01DX007 (ip), vehicle: methylcellulose (MC)) was 91 % of control; the T/C (dose: 18.0 mg/kg/injection, schedule: Q01DX007 (ip), vehicle: other) was 116 % of control; the T/C (dose: 36.0 mg/kg/injection, schedule: Q01DX007 (ip), vehicle: methylcellulose (MC)) was 95 % of control; the T/C (dose: 72.0 mg/kg/injection, schedule: Q01DX007 (ip), vehicle: methylcellulose (MC)) is 76 % of control; the T/C (dose: 72.0 mg/kg/injection, schedule: Q01DX007 (ip), vehicle: other) was 32 % of control. In addition, the T/C runs as follows: (dose: 124.0 mg/kg/injection, schedule: Q01DX007 (ip), vehicle: carboxymethylcellulose (CMC)) 73 % of control; (dose: 144.0 mg/kg/injection, schedule: Q01DX007 (ip), vehicle: methylcellulose (MC)) 44 % of control and 57 % of control; (dose: 188.0 mg/kg/injection, schedule: Q01DX007 (ip), vehicle: carboxymethylcellulose (CMC)) 44 % of control; (dose: 277.0 mg/kg/injection, schedule: Q01DX007 (ip), vehicle: carboxymethylcellulose (CMC)) 47 % of control; (dose: 281.0 mg/kg/injection, schedule: Q01DX007 (ip), vehicle: carboxymethylcellulose (CMC)) 76 % of control; (dose: 288.0 mg/kg/injection, schedule: Q01DX007 (ip), vehicle: methylcellulose (MC)) 52 % of control and 61 % of control. Moreover, the T/C by setting is: (dose: 422.0 mg/kg/injection, schedule: Q01DX007 (ip), vehicle: carboxymethylcellulose (CMC)) 35 % of control and 40 % of control; (dose: 435.0 mg/kg/injection, schedule: Q01DX007 (ip), vehicle: methylcellulose (MC)) 100 % of control; (dose: 630.0 mg/kg/injection, schedule: Q01DX007 (ip), vehicle: carboxymethylcellulose (CMC)) 37 % of control; (dose: 945.0 mg/kg/injection, schedule: Q01DX007 (ip), vehicle: carboxymethylcellulose (CMC)) 47 % of control.
Take `N#CCOC(=O)CCC(NC(=O)OCc1ccccc1)C(N)=O` (stereo not drawn): the T/C under setting [1] is 94 % of control.
Take `S=P(N1CCCCC1)(N1CC1)N1CC1`: the T/C by setting is: (dose: 55.0 mg/kg/injection, schedule: Q01DX007 (ip), vehicle: saline) 26 % of control; (dose: 84.0 mg/kg/injection, schedule: Q01DX007 (ip), vehicle: saline) 26 % of control; under setting [2], 14 % of control; (dose: 188.0 mg/kg/injection, schedule: Q01DX007 (ip), vehicle: saline) 8 % of control.
In the case of `CC(C)(C#N)C#N`, the T/C under setting [2] is 30 % of control; the T/C (dose: 187.0 mg/kg/injection, schedule: Q01DX007 (ip), vehicle: saline) was 36 % of control; the T/C (dose: 375.0 mg/kg/injection, schedule: Q01DX007 (ip), vehicle: saline) is 52 % of control and 58 % of control.
As to `O=C(N[C@H](CO)[C@H](O)c1ccc([N+](=O)[O-])cc1)C(Cl)Cl`, the T/C was 99 % of control (dose: 125.0 mg/kg/injection, schedule: Q01DX007 (ip), vehicle: carboxymethylcellulose (CMC)); 111 % of control and 112 % of control (dose: 250.0 mg/kg/injection, schedule: Q01DX007 (ip), vehicle: carboxymethylcellulose (CMC)); 45 % of control (dose: 375.0 mg/kg/injection, schedule: Q#A X014 (ip), vehicle: carboxymethylcellulose (CMC)); 76 % of control (dose: 400.0 mg/kg/injection, schedule: Q01DX007 (ip), vehicle: carboxymethylcellulose (CMC)); 105 % of control (dose: 666.66 mg/kg/injection, schedule: Q01DX007 (ip), vehicle: carboxymethylcellulose (CMC)); 97 % of control (dose: 1000.0 mg/kg/injection, schedule: Q01DX007 (ip), vehicle: carboxymethylcellulose (CMC)).
With `CC(=O)OCC(=O)[C@@]1(O)CC[C@H]2[C@@H]3C[C@H](C)C4=CC(=O)C=C[C@]4(C)[C@@]3(F)[C@@H](O)C[C@@]21C`, the T/C is, setting by setting: (dose: 125.0 mg/kg/injection, schedule: Q01DX007 (sc), vehicle: steriod suspending solution) 41 % of control; (dose: 187.0 mg/kg/injection, schedule: Q01DX007 (sc), vehicle: steriod suspending solution) 30 % of control.
Take `COC(=O)c1[nH]c(=O)[nH]c(=O)c1F`: the T/C (dose: 4.5 mg/kg/injection, schedule: Q01DX007 (ip), vehicle: carboxymethylcellulose (CMC)) was 78 % of control; the T/C (dose: 9.0 mg/kg/injection, schedule: Q01DX007 (ip), vehicle: carboxymethylcellulose (CMC)) is 44 % of control and 55 % of control; the T/C (dose: 14.0 mg/kg/injection, schedule: Q01DX007 (ip), vehicle: carboxymethylcellulose (CMC)) is 39 % of control and 51 % of control and 54 % of control; the T/C (dose: 21.0 mg/kg/injection, schedule: Q01DX007 (ip), vehicle: carboxymethylcellulose (CMC)) was 26 % of control; the T/C (dose: 31.0 mg/kg/injection, schedule: Q01DX007 (ip), vehicle: carboxymethylcellulose (CMC)) is 10 % of control and 14 % of control; the T/C (dose: 47.0 mg/kg/injection, schedule: Q01DX007 (ip), vehicle: carboxymethylcellulose (CMC)) was 5 % of control and 7 % of control and 12 % of control.
On to `C[C@]12CCC(=O)C=C1CC[C@@H]1[C@@H]2[C@@H](O)C[C@@]2(C)[C@H]1CC[C@]2(O)C(=O)COC(=O)c1ccc([N+](=O)[O-])cc1Cl`, for which the T/C is, setting by setting: (dose: 12.5 mg/kg/injection, schedule: Q#A X014 (sc), vehicle: steriod suspending solution) 79 % of control; (dose: 25.0 mg/kg/injection, schedule: Q#A X014 (sc), vehicle: steriod suspending solution) 67 % of control; (dose: 50.0 mg/kg/injection, schedule: Q#A X014 (sc), vehicle: steriod suspending solution) 38 % of control; (dose: 100.0 mg/kg/injection, schedule: Q#A X014 (sc), vehicle: steriod suspending solution) 32 % of control.
Consider `NC(=O)Oc1ccccc1`, for which the T/C reads like this: (dose: 220.0 mg/kg/injection, schedule: Q01DX007 (ip), vehicle: other) 69 % of control; (dose: 330.0 mg/kg/injection, schedule: Q01DX007 (ip), vehicle: other) 84 % of control; (dose: 492.0 mg/kg/injection, schedule: Q01DX007 (ip), vehicle: other) 65 % of control.

Values taken from PubChem BioAssay AID342 (DTP/NCI, 2004).
